Test results: patent US11174254B2, “Aniline-substituted 1,2-dihydropyrrol[3,4-C]pyridin/pyrimidin-3-one derivative and use thereof” (SHANGHAI HAIYAN PHARMACEUTICAL TECHNOLOGY CO., LTD., priority 2017, dated 2021)

How the values were obtained:
BTK WT = BTK WT (Homo sapiens (Human), UniProt Q06187); assay: Lantha Screening Kinase Reaction Assay; type: biochemical; settings: for IC50: TR-FRET LanthaScreen, kinase Invitrogen PV3363, 60 min at 25° C.; for inhibitory activity against enzyme (BTK WT), in words: comment on table 1, G-12 and G-17 compared with G-2
Method: The compound was predissolved in 100% DMSO.10 mM drug stock solution was obtained by dissolution at room temperature and then gradiently diluted with 8 vol % DMSO solution to a final concentration of 10-0.005 μM. 2.5 μl of a solution of substance to be tested and 2.5 μl of kinase (Invitrogen PV3363) diluted with the reaction buffer were added into each well of 384-well plate (Corning 3676), and then the mixture of Fluososcei-PolyGT (Invitrogen PV3610) substrate and ATP (Invitrogen PV3227) diluted with 5 μl of the reaction buffer were added to initiate the reaction. Among the wells, the kinase in the blank well was replaced with a reaction buffer and the kinase well (Enzyme) was not added with any drug. […] The plates were read on a VictorX5 fluorescent plate reader (PerkinElmer) and the light absorption at an excitation wavelength of 340 nm and emission wavelengths of 500 nm and 520 nm was measured.
2. The half-inhibitory concentration IC50 was calculated by fitting with XLFIT 5.0 software (IDBS, UK).

wild-type EGFR kinase = wild-type EGFR kinase (Homo sapiens (Human), UniProt P00533); assay: Wild type EGFR kinase inhibition test (z-lyte); type: biochemical; settings: wild-type EGFR kinase Invitrogen PV3872, Tyr04 substrate, read-out: EGFR WT IC50
From the text: All the following reagents used in z-lyte test are commercially available from Invitrogen.
The calculation method for the inhibition ratio (referring to the instruction of PV3363, Invitrogen) was as follows: ER=Coumarin Emission (450 nm)/Fluorescein Emission (520 nm) 1. Phosphorylation ratio=(1−((ER×C3520 nm−C3450 nm)/((C1450 nm−C3450 nm)+ER×(C3520 nm−C1520 nm))))×100% 2. Inhibition ratio (IR)=(1-phosphorylation ratio of the test compound)/(phosphorylation ratio of C2))×100% 3.
The half-inhibitory concentration IC50 was calculated by fitting with XLFIT 5.0 software (IDBS, UK).

βBTK Y223 (Ramos cells) = βBTK Y223 (Ramos cells) (Homo sapiens (Human), UniProt Q06187); assay: HTRF method for detecting intracellular βBTK Y223 phosphorylation; type: cell-based; settings: 1 hour compound incubation, sodium pervanadate stimulation
Method: The compound was predissolved in 100% DMSO. 10 mM drug stock solution was obtained by dissolution at room temperature and then gradiently diluted with 5 vol % DMSO solution to a final concentration of 3-0.0014 μM. Ramos cells were seeded into a 96-well plate at a density of 4×10^5/well with 45 μl of 1640 medium containing 10% (V/V) FBS per well, and 5 μl of diluted solution of substance to be tested was added to each well. Incubation was performed for 1 hour at 37° C., 5% (V/V) CO2. 10 μl of sodium pervanadate dilution (diluted with 1640 without serum) was added, and 10 μl of serum-free medium was added to the negative control wells. Incubation was performed at 25° C. for 30 minutes on a shaker. 20 μl of lysate (4× lysate: blocked mother liquor is equal to 25:1) was added to each well and incubated for 30 minutes at 25° C. on a shaker. The 96-well plate was shaken on an oscillator at 800 rpm for 1 minute. 16 μl of cell lysate was added to a 384-well plate (Greiner 784075), and 4 μl of pre-mixed antibody solution (Phospho-BTK d2 antibody and Phospho-BTK Cryptate antibody diluted 20-fold with the test solution) was added. Incubation was performed at 25° C. overnight on a shaker. The plate was read on a VictorX5 fluorescent plate reader (PerkinElmer) and the light absorption at an excitation wavelength of 317 nm and emission wavelengths of 500 nm and 520 nm was measured (referring to the instruction of 63ADK017PEH, Cisbio). The half-inhibitory concentration IC50 was calculated by fitting with XLFIT 5.0 software (IDBS, UK).

wild-type EGFR kinase, sequence (P00533 25-1210): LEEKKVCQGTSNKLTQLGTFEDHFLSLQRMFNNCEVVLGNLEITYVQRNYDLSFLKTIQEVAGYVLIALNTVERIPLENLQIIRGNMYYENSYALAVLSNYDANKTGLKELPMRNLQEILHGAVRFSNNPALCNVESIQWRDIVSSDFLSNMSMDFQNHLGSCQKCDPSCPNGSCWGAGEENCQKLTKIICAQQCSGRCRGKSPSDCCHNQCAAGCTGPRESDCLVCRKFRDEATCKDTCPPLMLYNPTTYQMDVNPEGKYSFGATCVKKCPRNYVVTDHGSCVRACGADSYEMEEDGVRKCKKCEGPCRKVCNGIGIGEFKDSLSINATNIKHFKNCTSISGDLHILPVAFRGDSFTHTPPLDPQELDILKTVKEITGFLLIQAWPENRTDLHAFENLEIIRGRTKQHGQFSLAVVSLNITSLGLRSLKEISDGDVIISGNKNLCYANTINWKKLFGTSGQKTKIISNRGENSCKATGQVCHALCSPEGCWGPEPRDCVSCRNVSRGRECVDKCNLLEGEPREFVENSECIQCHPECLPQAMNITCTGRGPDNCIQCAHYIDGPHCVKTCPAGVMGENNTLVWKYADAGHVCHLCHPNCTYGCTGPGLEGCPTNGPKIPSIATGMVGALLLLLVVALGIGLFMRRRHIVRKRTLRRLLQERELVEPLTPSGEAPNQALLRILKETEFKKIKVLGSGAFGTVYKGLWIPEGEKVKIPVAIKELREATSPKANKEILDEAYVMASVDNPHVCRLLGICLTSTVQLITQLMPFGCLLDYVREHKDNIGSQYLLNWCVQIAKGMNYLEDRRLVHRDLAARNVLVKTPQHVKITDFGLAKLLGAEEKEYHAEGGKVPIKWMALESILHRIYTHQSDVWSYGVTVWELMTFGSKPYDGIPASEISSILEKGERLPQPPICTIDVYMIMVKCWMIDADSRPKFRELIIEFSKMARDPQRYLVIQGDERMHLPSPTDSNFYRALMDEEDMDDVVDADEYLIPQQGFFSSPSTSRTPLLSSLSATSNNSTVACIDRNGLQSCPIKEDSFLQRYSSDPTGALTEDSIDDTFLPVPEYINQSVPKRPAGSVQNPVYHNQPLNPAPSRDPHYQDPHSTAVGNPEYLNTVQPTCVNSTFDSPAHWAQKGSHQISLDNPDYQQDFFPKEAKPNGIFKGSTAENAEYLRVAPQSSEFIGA
βBTK Y223 (Ramos cells), sequence (Q06187 whole entry): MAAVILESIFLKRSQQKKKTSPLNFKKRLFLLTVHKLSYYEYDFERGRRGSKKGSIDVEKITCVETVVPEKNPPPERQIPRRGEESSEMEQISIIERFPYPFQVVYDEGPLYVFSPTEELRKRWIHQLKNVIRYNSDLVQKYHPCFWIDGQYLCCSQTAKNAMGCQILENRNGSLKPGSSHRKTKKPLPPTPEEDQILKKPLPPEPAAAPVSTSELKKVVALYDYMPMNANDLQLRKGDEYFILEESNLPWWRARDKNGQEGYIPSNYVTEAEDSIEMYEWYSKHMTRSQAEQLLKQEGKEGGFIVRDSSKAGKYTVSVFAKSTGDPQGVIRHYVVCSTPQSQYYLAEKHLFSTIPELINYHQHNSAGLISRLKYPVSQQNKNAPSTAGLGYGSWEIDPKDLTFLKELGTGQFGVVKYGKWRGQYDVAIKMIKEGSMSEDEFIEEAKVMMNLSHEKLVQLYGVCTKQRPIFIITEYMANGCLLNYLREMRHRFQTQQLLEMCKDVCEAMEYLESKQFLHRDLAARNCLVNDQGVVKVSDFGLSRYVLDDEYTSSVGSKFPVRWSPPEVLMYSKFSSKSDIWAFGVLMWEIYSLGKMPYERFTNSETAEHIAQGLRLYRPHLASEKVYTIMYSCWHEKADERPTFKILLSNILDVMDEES
BTK WT, sequence (Q06187 whole entry): as above

Row | Structure (SMILES) | IC50 (BTK WT) [nM] | IC50 (wild-type EGFR kinase) [nM] | IC50 (βBTK Y223 (Ramos cells)) [nM] | inhibitory activity against enzyme (BTK WT), in words (BTK WT)
1 | C=CC(=O)Nc1cccc(Nc2nc(Nc3ccc(OCCOC)cc3)c3c(c2F)C(C)NC3=O)c1 (stereo not drawn) [Compound G-1, N-(3-((7-fluoro-4-((4-(2-methoxyethoxy)phenyl)amino)-1-methyl-3-oxo-2,3-dihydro-1H-pyrrolo[3,4-C]pyridin-6-yl)amino)phenyl)acrylamide] | 141 | 9270 | – | –
2 | C=CC(=O)Nc1cccc(Nc2nc3c(c(Nc4ccc(OCCOC)cc4)n2)C(=O)NC3)c1 [Compound G-2, N-(3-(4-(4-(2-methoxyethoxy)phenylamino)-5-oxo-6.7-dihydro-5H-pyrrolo[3,4-d]pyrimidin-2-ylamino)phenyl)acrylamide] | 25 | 4690 | 43 | –
3 | C=CC(=O)Nc1cccc(Nc2nc(Nc3ccc(OCCOC)cc3)c3c(c2F)CNC3=O)c1 [Compound G-3, N-(3-(7-fluoro-4-(4-(2-methoxyethoxy)phenylamino)-3-oxo-2,3-dihydro-1H-pyrrolo[3,4-c]pyridin-6-ylamino)phenyl)acrylamide] | 58 | > 10000 | 106 | –
4 | C=CC(=O)Nc1cccc(Nc2nc(Nc3ccc(N4CCN(CC(C)O)CC4)cc3)c3c(c2F)CNC3=O)c1 (stereo not drawn) [Compound G-4, N-(3-(7-fluoro-4-(4-(4-(2-hydroxypropyl)piperazin-1-yl)phenylamino)-3-oxo-2,3-dihydro-1H-pyrrolo[3,4c]pyridin-6-ylamino)phenyl)acrylamide] | 10 | 3000 | 6 | –
5 | C=CC(=O)Nc1cccc(Nc2nc(Nc3ccc(OCCOC)cc3)c3c(c2F)C(C)(C)NC3=O)c1 [Compound G-5, N-(3-(7-fluoro-4-(4-(2-methoxyethoxy)phenylamino)-1,1-dimethyl-3-oxo-2,3-dihydro-1H-pyrrolo[3,4-c]pyridin-6-ylamino)phenyl)acrylamide] | 156 | – | – | –
6 | C=CC(=O)Nc1cccc(Nc2nc3c(c(Nc4ccccc4)n2)C(=O)NC3)c1 [Compound G-6, N-(3-(5-oxo-4-(phenylamino)-6,7-dihydro-5H-pyrrolo[3,4-d]pyrimidin-2-ylamino)phenyl)acrylamide] | 14 | 3000 | 20 | –
7 | C=CC(=O)Nc1cccc(Nc2nc3c(c(Nc4cnn(C5CCOCC5)c4)n2)C(=O)NC3)c1 [Compound G-7, N-(3-(5-oxo-4-(1-(tetrahydro-2H-pyran-4-yl)-1H-pyrazol-4-ylamino)-6,7-dihydro-5H-pyrrolo[3,4d]pyrimidin-2-ylamino)phenyl)acrylamide] | 19 | 6990 | 111 | –
8 | C=CC(=O)Nc1cccc(Nc2nc3c(c(Nc4cnn(C)c4)n2)C(=O)NC3)c1 [Compound G-8, N-(3-(4-(1-methyl-1H-pyrazol-4-ylamino)-5-oxo-6,7-dihydro-5H-pyrrolo[3,4-d]pyrimidin-2-ylamino)phenyl)acrylamide] | 9 | 6420 | 36 | –
9 | C=CC(=O)Nc1cccc(Nc2nc3c(c(Nc4cnn(CC(C)(C)O)c4)n2)C(=O)NC3)c1 [Compound G-9, N-(3-(4-(1-(2-hydroxyl-2-methylpropyl)-1H-pyrazol-4-ylamino)-5-oxo-6,7-dihydro-5H-pyrrolo[3,4-d]pyrimidin-2-ylamino)phenyl)acrylamide] | 55 | 5030 | 82 | –
10 | C=CC(=O)Nc1cccc(Nc2cc3c(c(Nc4ccc(OCCOC)cc4)n2)C(=O)NC3)c1 [Compound G-10, N-(3-(4-(4-(2-methoxyethoxy)phenylamino)-3-oxo-2,3-dihydro-1H-pyrrolo[3,4-c]pyridin-6-ylamino)phenyl)acrylamide] | 68 | > 10000 | 164 | –
11 | C=CC(=O)Nc1cccc(Nc2nc3c(c(-c4cnn(C)c4)n2)C(=O)NC3)c1 [Compound G-11, N-(3-(4-(1-methyl-1H-pyrazol-4-yl)-5-oxo-6,7-dihydro-5H-pyrrolo[3,4-d]pyrimidin-2-ylamino)phenyl)acrylamide] | 48 | > 10000 | 4 | –
12 | C=CC(=O)Nc1cccc(Nc2nc3c(c(Oc4ccc(OCCOC)cc4)n2)C(=O)NC3)c1 [Compound G-12, N-(3-((4-(4-(2-methoxyethoxy)phenoxyl)-5-oxo-6,7-dihydro-5H-pyrrolo[3,4-d]pyrimidin-2-yl)amino)phenyl)acrylamide] | 1350 | 1530 | – | significantly reduced
13 | C=CC(=O)Nc1cccc(Nc2nc3c(c(Nc4cnn(C5CC5)c4)n2)C(=O)NC3)c1 [Compound G-13] | 63 | 3080 | 81 | –
14 | C=CC(=O)Nc1cccc(Nc2nc3c(c(Nc4cnn(CCOC)c4)n2)C(=O)NC3)c1 [Compound G-14] | 59 | 2690 | 103 | –
15 | C=CC(=O)Nc1cccc(Nc2nc3c(c(Nc4ccc(N5CCOCC5)cc4)n2)C(=O)NC3)c1 [Compound G-15] | 52 | 4260 | 36 | –
16 | C=CC(=O)N(CC)c1cccc(Nc2nc3c(c(Nc4ccc(N5CCN(C6COC6)C[C@@H]5C)cc4)n2)C(=O)NC3)c1 [Compound G-16] | 44 | 5680 | 62 | –
17 | C=CC(=O)Nc1cccc(Nc2nc3c(c(N(C)c4ccc(OCCOC)cc4)n2)C(=O)NC3)c1 [Compound G-17] | > 10000 | > 10000 | – | significantly lowered
